From patent US20230226228A1, “POSITRON IMAGING TOMOGRAPHY IMAGING AGENT COMPOSITION AND METHOD FOR DETECTION OF BACTERIAL INFECTION” (priority 2020, published 2023) come the findings set out here.

The structures appear in SMILES notation.

Data set [1] relates to S. aureus NfsB. Format: biochemical. Particulars: NADH 40 μM, substrate varied, Michaelis-Menten fit.
Description: F-ENB, F-NB and F-NAP by NfsB was performed in 50 mM Tris-HCl buffer (pH 7.4) containing 5 mM EDTA, and 40 μM NADH in a total reaction volume of 500 μL. The reaction was initiated by adding enzyme (22 nM) and the consumption of NADH was monitored at 340 nm. […] Initial velocities as a function of substrate concentration were fitted to the Michaelis-Menten equation using GraphPad Prism 4. Each experiment was performed in triplicate and all the data points were included when the data were fit by the Michaelis-Menten equation.
The nitroreductase assay was performed at room temperature in 50 mM Tris-HCl buffer, pH 7.4, containing 5 mM EDTA in a total reaction volume of 500 μL. Reactions were initiated by the addition of NfsB to a final concentration of 45 nM, and the consumption of NADH was continuously monitored at 340 nm. […] The experiments were performed in triplicate and the initial velocities as a function of substrate concentration were globally fit to the Michaelis-Menten equation using GraphPad Prism 4.
Data set [2] concerns S. aureus Xen29. In words: Rescue of sulfamethoxazole antibacterial effect (MIC, microbroth dilution in M9 media). Format: cell-based. On the procedure: FIG. 13. Impact of PABA analogues on the antibacterial activity of sulfamethoxazole (SMX).
Antibacterial susceptibility tests for aerobically growing bacteria were performed with a modified microbroth dilution assay according to the Clinical and Laboratory Standard Institute in transparent 96-well plates (CLSI. 2006). S. aureus Xen29 (PerkinElmer) were utilized in this study. Briefly, bacteria were grown to mid log phase (OD600 of 0.6-0.7) in cation-adjusted Mueller-Hinton (CAMH) media at 37° C. in an orbital shaker. Subsequently, bacteria were resuspended in the M9 media. A final concentration of 10^6 CFU/mL per well was added to M9 media (1% glucose, 1% casamino acids, 1 mM thiamine, 0.05 mM nicotinamide, 2 mM MgCl2, 0.1 mM CaCl2) containing 2-fold dilutions of SMX to give final concentrations ranging from 0.05 to 100 μg/mL either alone or in the presence of PABA (0.8 μg/mL and 4 μg/mL), F-PABA (0.8 μg/mL and 4 μg/mL), F-NB (10 μg/mL, 20 μg/mL and 40 μg/mL), or F-NAP (10 μg/mL, 20 μg/mL and 40 μg/mL). The plate was examined for bacteria growth using a UV-vis plate reader after 24 h incubation at 37° C. The MIC was recorded as the lowest SMX concentration (μM) required to inhibit at least 90% of bacterial growth as judged by the absorbance of the culture media.
On the technique in general: Dilution methods test growth across graded concentrations, often in twofold steps.

In data set [3] the test system is bacterial cells. In words: MIC / toxicity of F-PABA. Format: cell-based.
Data set [4] deals with S. aureus Newman. Nature of the data set: PET/CT imaging of rat triceps infection / sterile inflammation model (S. aureus Newman). The class given is in vivo, Sprague-Dawley rats. Particulars: 60-80 min after tracer injection. As for the experimental part:
FIG. 3. PET/CT imaging of a rat model of S. aureus Newman-induced triceps infection. (A) [^18F]FDG PET/CT of a rat in which 8.2±0.2 log10 CFU of S. aureus Newman has been injected into the right triceps (red arrow) and with sterile inflammation in the left triceps (yellow arrow). The image was acquired 60-80 min after tracer injection. (B) Comparison of [18F]FDG accumulation 60-80 min postinjection at sites of infection and sterile inflammation, represented as % injected dose per cc (% ID/cc). […] (D) Comparison of 2-[^18F]F-ENB accumulation in the infected triceps and inflamed triceps 180-200 min after tracer injection: ***P<0.001 from a two-tailed Mann-Whitney U Test (n=7). (E) Ex vivo PET imaging of the excised infected triceps. The area of infection is highlighted in yellow. […]
(§1) S. aureus (Newman or Xen29) was cultured overnight by inoculating 5 μL of bacteria from a glycerol stock into 10 mL of fresh cation-adjusted Mueller-Hinton (CAMH) broth or tryptic soy broth (TSB). […] After imaging, the infected triceps were collected, homogenized in PBS using a hand-held homogenizer, and the bacterial burden at the time of imaging was determined by plating the muscle tissues onto solid MH medium. After overnight incubation at 37° C., CFUs were quantified by enumeration. […]

Data set [5] deals with DHPS (Staphylococcus aureus, UniProt O05701). Nature of the data set: HPPK-DHPS-DHFR coupled assay. Format: biochemical. Particulars: concentration of 80 μM.
Sequence of DHPS (O05701 whole entry): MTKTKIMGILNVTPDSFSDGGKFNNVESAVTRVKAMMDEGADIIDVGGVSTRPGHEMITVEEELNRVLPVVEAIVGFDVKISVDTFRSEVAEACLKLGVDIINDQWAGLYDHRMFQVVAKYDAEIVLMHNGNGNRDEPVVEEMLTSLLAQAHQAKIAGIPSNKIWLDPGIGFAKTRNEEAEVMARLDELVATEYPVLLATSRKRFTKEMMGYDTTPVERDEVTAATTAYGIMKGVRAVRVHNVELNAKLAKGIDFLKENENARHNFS
In data set [6] the test system is S. aureus Xen29. Nature of the data set: PET/CT imaging of rat triceps infection / sterile inflammation model (S. aureus Xen29). Format: in vivo, Sprague-Dawley rats. As for the experimental part:
FIG. 5. PET/CT imaging of rats infected in the right triceps with the bioluminescent Xen29 strain of S. aureus. (A) Experimental design. (B) 2-[^18F]F-ENB-derived radioactivity accumulates in the infected triceps (red arrow) but not the inflamed triceps (yellow arrow) at 3 h post tracer administration.
FIG. 8. PET/CT imaging of 2-[^18F]F-NB in a rat model of S. aureus Xen29 infection. (A) Radiosynthesis of 2-[^18F]F-NB. (i) [^18F]potassium fluoride, Kryptofix222, potassium carbonate, dimethyl sulfoxide, r.t., 10 min; (ii) 2 M potassium hydroxide in H2O, 105° C., 10 min; Overall decay-corrected radiochemical yield: 26% (n=1).
FIG. 10. Time activity curve (TAC) in infected triceps, inflamed triceps and blood and biodistribution of 2-[^18F]F-NB in major organs. (a) The right triceps of the rats were infected with S. aureus Xen 29 and the left triceps were injected with a 10-fold higher burden of heat-killed S. aureus to induce sterile inflammation. The rats were scanned by PET/CT for 120 min (rats with sterile inflammation in the left triceps) immediately starting from tracer administration. The PET scan was separated into ten frames (1-min) and twenty-two frames (5-min). TACs of infected triceps (blue), inflamed triceps (grey) and blood (left heart ventricle, red) are shown. Data represented as mean with standard error of the mean (n=4). (b) Time-dependent accumulation of 2-[^18F]F-NB in infected and inflamed triceps compared to the blood (left heart ventricle). Data are presented as the mean and standard error of the mean (n=4). […]
as §1

In data set [7] the test system is S. aureus Newman. In words: In vitro cellular uptake of radiotracer. The class given is cell-based. Particulars: 1 μCi/mL, 120 min incubation, versus heat killed bacteria. As for the experimental part: (§2) FIG. 12. In vitro 2-[^18F]F-NB uptake by S. aureus Newman and Xen29. 1 μCi of 2-[^18F]F-NB was incubated in a 1 mL culture of S. aureus Newman (green bars) or S. aureus Xen29 (blue bars) for 5, 30, 60, 90 and 120 min.
(§3) S. aureus Newman and S. aureus Xen29 were aerobically grown to OD600 0.6 in LB media at 37° C. To evaluate the uptake of 2-[^18F]F-NB, the bacteria were incubated with 1 μCi/mL of the radiotracer at 37° C. with rapid agitation. Heat-killed (90° C. for 30 min) bacteria were similarly incubated with 2-[^18F]FNB. Aliquots (1 mL) were removed after 5, 30, 60, 90, and 120 min and pelleted by centrifugation (11 000 rpm, 3 min) and washed three times with cold phosphate buffered saline (PBS). Total radioactivity was measured using an automated gamma counter and is reported as the percentage of radioactivity added to the culture. A minimum of five replicates were used for each assay and time point.

For data set [8], the system named is S. aureus Xen29. In words: In vitro cellular uptake of radiotracer. The class given is cell-based. Particulars: 1 μCi/mL, 120 min incubation, versus heat killed bacteria. As for the experimental part:
as §2, §3

A word on the kcat: it is the maximal rate divided by the concentration of active sites.

Turning to `CCOC(=O)c1ccc([N+](=O)[O-])cc1F` [2-F-ENB, Ethyl 2-fluoro-4-nitrobenzoate], the kcat in data set [1] is 16.1 ± 1.7 s⁻¹.
For `Nc1ccc(C(=O)O)c(F)c1` [F-PABA, 2-fluoro-4-aminobenzoic acid], the “rescue of growth in the presence of sulfamethoxazole” value (from here on “rescue of growth”) in data set [2] is listed as “rescued bacterial growth in a concentration-dependent manner”. Further, in data set [2] (0.8 μg/mL F-PABA), the “MIC of sulfamethoxazole in the presence of 0.8 μg/mL F-PABA” value is 12.5 µg/mL and the “increase of sulfamethoxazole MIC by 0.8 μg/mL F-PABA” value amounted to 8 fold. The “MIC of sulfamethoxazole in the presence of 4 μg/mL F-PABA” value in data set [2] (4 μg/mL F-PABA) is listed as “over 100 μg/mL”. In data set [3], the MIC was above 100 µg/mL and the “toxicity to bacterial or mammalian cells” value is recorded as “not toxic to either bacterial or mammalian cells”.
Consider `O=C[C@H]([18F])[C@@H](O)[C@H](O)[C@H](O)CO` [[^18F]FDG, 2-Deoxy-2-[18F]fluoro-D-glucose], for which, in data set [4], the “radioactivity in the infected triceps” value came to 0.8 % ID/cc. Also, the “radioactivity in the inflamed triceps” value in data set [4] (sterile inflammation) is 1.2 % ID/cc.
Regarding `O=C(O)c1ccc([N+](=O)[O-])cc1F` [2-F-NB, 2-fluoro-p-nitrobenzoate], the kcat in data set [1] was found to be 12.4 ± 1.6 s⁻¹. Further, in data set [2], the “rescue of growth” value is recorded as “antagonized the activity of sulfamethoxazole”. In addition, the “MIC of sulfamethoxazole in the presence of 40 μg/mL 2-F-NB” value in data set [2] (40 μg/mL 2-F-NB) came out at 12.5 µg/mL.
With `Cc1cc(NS(=O)(=O)c2ccc(N)cc2)no1` [sulfamethoxazole], the MIC in data set [2] (Staphylococcus aureus, XEN29, 24 h, M9 media, read-out: MIC of sulfamethoxazole alone) was found to be 1.56 µg/mL.
Take `CC(=O)c1ccc([N+](=O)[O-])cc1F` [2-F-NAP, 2-fluoro-4-nitroacetophenone]: the “rescue of growth” value in data set [2] is listed as “unable to rescue growth”.
Still for that read-out and setting: as for `Nc1ccc(C(=O)O)cc1` [PABA, p-aminobenzoic acid], the entry is “bacterial regrowth in the presence of sulfamethoxazole occurred”.
`CC(=O)c1ccc(N)cc1F` [2-fluoro-4-aminoacetophenone, 2-Fluoro-4-aminoacetophenone]: the “substrate for DHPS” value in data set [5] is recorded as “not an efficient substrate for DHPS”.
With `O=C(O)c1ccc([N+](=O)[O-])cc1[18F]` [2-[^18F]F-NB, 2-[^18F]F-4-nitrobenzoate], in data set [6] (3 h post injection, ROI analysis), the “signal at the infection site versus site of sterile inflammation” value worked out at 17 fold. Besides, in data set [6] (180 min post tracer injection), the “localisation of radioactive signal” value was “localized at the site of infection”. Also, the “uptake of radiotracer by live bacteria” value in data set [7] and in data set [8] was “Time dependent uptake” throughout.
